# Reference: PubChem BioAssay AID2743 (NMMLSC, 2010)
# Values joined by “and” are separate entries in the source; they are usually repeats but may differ in a detail not shown here. Equal values may be shown once. Active and inactive are the calls of the source.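 How the source made its calls: active means fitted half-maximal concentration for change in GFP expression of 33 µM or less; inactive means the rest.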
# Assay: concentration-dependent AGP1-GFP change, TOR pathway – cell-based, flow cytometry, S. cerevisiae, MLPCN hits, dose response (AID 2743)
# Details: S. cerevisiae AGP1-GFP strain, flow cytometry GFP, 3 h; at 33 µM (top of the series)
row,Structure (SMILES),GFP fluorescence (kMESF)
1,Cc1ccc(-c2nc(C)sc2CC(=O)Nc2nnc(C)s2)cc1,34.5 kMESF (inactive)
2,COc1ccc(NC2=C(Cl)C(=O)N(CCc3ccccc3)C2=O)cc1,43.7 kMESF (inactive)
3,Cc1[nH]c2ccccc2c1C(=O)COC(=O)c1ccc([N+](=O)[O-])s1,16.9 kMESF (inactive)
4,O=C(OCC(=O)N1CCN(C(=O)c2ccco2)CC1)c1cc(-c2ccc(F)cc2)nc2ccccc12,49.9 kMESF (inactive) and 40 kMESF (inactive)
5,CC(=O)[C@]1(O)Cc2c(O)c3c(c(O)c2[C@@H](O[C@H]2C[C@H](N)[C@H](O)[C@H](C)O2)C1)C(=O)c1ccccc1C3=O,33.4 kMESF (inactive)
6,CC1(c2ccccc2)ON(c2ccccc2C(F)(F)F)C1=O (stereo not given),29.4 kMESF (inactive)
7,CC[C@]1(c2ccccc2OC)ON(c2ccccc2C(F)(F)F)C1=O,32.6 kMESF (inactive)
8,O=C(NNC(=S)NC(=O)C12CC3CC(CC(C3)C1)C2)c1ccncc1,33.2 kMESF (inactive)
9,Cc1c(Cc2ccccc2)c(NCCN(C)C)n2c(nc3ccccc32)c1C#N,45.4 kMESF (inactive)
10,Cc1ccc(/C=C2\SC(=S)N(Cc3ccccc3)C2=O)o1,38.4 kMESF (inactive)
11,Cc1ccc(NC(=O)ON=C2CCCC2)cc1,26.4 kMESF (inactive)
12,Nc1ccc(Br)c2c1C(=O)c1ccccc1C2=O,27.1 kMESF (inactive)
13,CCOc1ccc(NC2=C(Cl)C(=O)N(Cc3ccccc3)C2=O)cc1,41.3 kMESF (inactive)
14,O=C(O)c1cc[c]([Hg][Cl])cc1,32.1 kMESF (inactive)
15,CCOC(=O)/C(=C\c1cn(C)c2ccccc12)[N+](=O)[O-],41.9 kMESF (inactive)
16,CC1=C(C)/C(=N\OS(=O)(=O)c2ccccc2)C=CC1=O,41.6 kMESF (inactive)
17,Cc1c(C(=O)Nc2nc(-c3ccccn3)cs2)oc2ccccc12,35.6 kMESF (inactive)
18,CC(C)(C)n1nc(-c2ccc(Cl)cc2)c2c(N)ncnc21,39.9 kMESF (inactive)

row,Structure (SMILES),GFP fluorescence (kMESF)
1,O=C1C2C3C=CC(CO)(O3)C2C(=O)N1c1ccc(-c2ccccc2)cc1 (stereo not given),40.8 kMESF (inactive)
2,CCCCC(=O)NC(=S)NNC(=O)CCc1ccccc1,28.1 kMESF (inactive)
3,C/C(=N\Nc1ncnc2sc(C)c(C)c12)c1ccccn1,26.5 kMESF (inactive)
4,O=C1c2cccc3c([N+](=O)[O-])ccc(c23)C(=O)N1O,40.9 kMESF (inactive)
5,Cc1c(C)c2ccc(Oc3ccc([N+](=O)[O-])cc3C(F)(F)F)c(C)c2oc1=O,33.9 kMESF (inactive)
6,CCCCCCCCn1sccc1=O,31.5 kMESF (inactive)
7,O=C(NC(=S)NNC(=O)c1cnccn1)c1ccc(Cl)cc1,37.6 kMESF (inactive)
8,COc1cc(SSc2cc(OC)cc([N+](=O)[O-])c2N)c(N)c([N+](=O)[O-])c1,48.9 kMESF (inactive)
9,COC(=O)/C(=C/c1c[nH]c2ccccc12)[N+](=O)[O-],39.1 kMESF (inactive)
10,O=C1C=CC(=O)N1N(c1ccccc1)c1ccccc1,37 kMESF (inactive)
11,CC1(C(=O)NC(=S)NNC(=O)c2ccncc2)CCCCC1,34.2 kMESF (inactive)
12,COc1cc(/C=C2/C(=O)c3cccc([N+](=O)[O-])c3C2=O)c(Br)cc1O,32.9 kMESF (inactive)
13,N#Cc1c2ccc([N+](=O)[O-])cc2[n+]([O-])n1-c1ccccc1,27.6 kMESF (inactive)
14,COc1ccc(-c2cc(C(F)(F)F)nc(S(C)(=O)=O)n2)cc1,36 kMESF (inactive)
15,COc1ccccc1-c1nc2s/c(=C\c3cccs3)c(=O)n2n1,27.7 kMESF (inactive)
16,CC(C)C[C@]1(c2ccccc2)ON(c2ccccc2C(F)(F)F)C1=O,34.6 kMESF (inactive)
17,CN(c1ccccc1)c1ccc(/C=c2\s/c(=C(/C#N)C(=O)C(C)(C)C)n(Cc3ccco3)c2=O)cc1,38 kMESF (inactive)
